Columns and labels:
[1] = tested on: human chordoma CM-319 cells; experiment: CCK-8 proliferation inhibition of human chordoma CM-319 cells; type: cell-based
Method: Drug: chlorogenic acid raw material (99.6% purity, Sichuan Jiuzhang Biotechnology Co., Ltd.) Cell line: human chordoma cell line CM-319 cells (West China Hospital, Sichuan University)
Human chordoma CM-319 cells growing in logarithmic phase was collected, and the cell concentration was adjusted to 6×10^5 cells/ml with 1640 medium. 100 μL suspension of above cells was taken out and inoculated into 96 well plate, and each experimental group has three replicate wells. To each well, was added 100 μL corresponding drugs, so that the final concentration of chlorogenic acid in the experimental group is 10 μmol/L, 20 μmol/L, and 40 μmol/L, respectively, and then the plate was further cultured for 24 hours. In the negative control group, no drug was added, and only the same volume of 100 μL culture medium was added. After 24 hours, 10 μL CCK-8 solution was added to each well, and the culture plate was incubated in the incubator for another one hour. The absorbance of each well was measured at 450 nm by ELISA. The inhibition of chlorogenic acid on human chordoma CM-319 cells was calculated at various concentrations by using the growth inhibition rate=(absorbance of the negative control group at 450 nm—absorbance of the experimental group at 450 nm)/absorbance of the negative control group at 450 nm×100%.

[2] = tested on: MDR1 expression in human chordoma CM-319 cells; conditions: RT-PCR, FIG. 1
Excerpt: MDR1 primer (Shanghai Bioengineering Co., Ltd.); RNA extraction kit (Jiangsu biyuntian); reverse transcription synthesis kit (Jiangsu biyuntian); chlorogenic acid API (purity 99.6%, Sichuan Jiuzhang Biotechnology Co., Ltd.).
In this example, RT-PCR was used to detect the effect of different experimental groups on the expression of MDR1 in human chordoma CM-319 cells. CM-319 cells cultured in 6-well plate was collected, and RNA extraction kit was used to extract total RNA in cells, then reverse transcription synthesis kit was used to transcribe the first strand of cDNA. After that, PCR amplification reaction was used to detect the expression level of target genes in different experimental groups.

[3] = different concentrations (10, 20, 40 μmol/L)

## O=C(/C=C/c1ccc(O)c(O)c1)O[C@@H]1C[C@](O)(C(=O)O)C[C@@H](O)[C@H]1O [chlorogenic acid]
[1]; Homo sapiens, Group 1: chlorogenic acid 10 μmol/L, 24 hours, CCK-8, read-out: Inhibitory rate of cells (%)
  inhibition at 10 µM: 36.8 ± 5.12%
[1]; Homo sapiens, Group 2: chlorogenic acid 20 μmol/L, 24 hours, CCK-8, read-out: Inhibitory rate of cells (%)
  inhibition at 20 µM: 48.4 ± 6.11%
[1]; Homo sapiens, Group 3: chlorogenic acid 40 μmol/L, 24 hours, CCK-8, read-out: Inhibitory rate of cells (%)
  inhibition at 40 µM: 55.5 ± 3.78%
[1]; [3]
  inhibition of proliferation of human chordoma cells (in words): strongly inhibit human chordoma cells
[2]; [3]
  expression level of MDR1 in CM-319 cells (in words): reduce the expression level of MDR1 in CM-319 cells to various degrees
[2]; high concentration 40 μmol/L, compared with other groups
  expression level of drug-resistant genes (MDR1) in cells (in words): significantly reduce the expression level of drug-resistant genes

Reference: patent publication US11547715B2, “Use of chlorogenic acid in preparation of drug for treating chordoma” (SICHUAN JIUZHANG BIOLOGICAL SCIENCE AND TECHNOLOGY CO., LTD, priority 2017, dated 2023)
